Assay results taken from patent publication US20220289787A1, “DIMER COMBINATIONS AND USES THEREOF” (Ripple Therapeutics Corporation, priority 2019, published 2022).

Experiment: Drug release from heat-molded pellets of Compound 1 in PBS at 37° C. (HPLC)
Format: physicochemical
Conditions: FIG. 2
Experimental: Heat-molded pellets from Compound 1 (^˜1 mm×1 mm) were placed in 20 mL glass vials and 2 mL of the release buffer phosphate buffered saline (PBS) was added.

Compound: C[C@@H]1C[C@H]2[C@@H]3CCC4=CC(=O)C=C[C@]4(C)[C@@]3(F)[C@@H](O)C[C@]2(C)[C@@]1(O)C(=O)COC(=O)OCCOCCOCCOC(=O)OCC(=O)[C@@]1(O)[C@H](C)C[C@H]2[C@@H]3CCC4=CC(=O)C=C[C@]4(C)[C@@]3(F)[C@@H](O)C[C@@]21C [Compound 1, dexamethasone-triethylene glycol-dexamethasone]
- dexamethasone release profile (cumulative drug release) (heat-molded pellets ~1 mm×1 mm): zero-order (e.g., near zero order) release
- duration of zero-order release (heat-molded pellets): at least 100 days
